Laboratory results from patent US20020049257A1, “Antibacterial composition” (priority 2000, published 2002).

Key:
[1] = system: Ax 26 Corynebacterium sp.; test: MIC microtiter plate test, axilla strain Ax 26; assay type: cell-based; conditions: for Bacteriostatic activity Corynebact. Ax 26: at least 80% reduction in growth during 24 hours, Table 7; for Minimal inhibitory concentration (MIC) Ax 26: at least 80% growth inhibition, 24 h, 36° C., Table 1
From the text: (§1) The different bacterial strains had been isolated from the human axilla by current microbiological practice. They were taxonomically identified by cell morphology, gram-reaction, and biochemical tests included in the Api coryne test kit (BioMerieux, France). Strain Staphylococcus epidermidis Ax25 was identified by fatty acid methyl ester analysis (FAME; German type strain collection DSMZ, Germany). The strains were maintained on Tryptic soy broth plates, this standard medium being amended with 5 g per Liter of Tween 80 and 1 g of Soybean lecithin. Plates were incubated at 36° C. for a period 48 hours. The bacteria were then swabbed from the plates and suspended in 4 ml of Muller-Hinton broth amended with 100 mg of Tween 80 per Liter (MH-Tween) and incubated again at 360 C for 16 hours. Following incubation the bacterial suspensions were diluted in MH-Tween to obtain a final cell density of 10^6 colony forming units per ml. For each fragrance material four microtiter plates were used in the example, each microtiter plate having 8 rows, A-H, and 12 columns, 1-12. To each column a diluted suspension of a different test organism was distributed, 100 μl per well. 1% stock solutions of the fragrance materials were then prepared in MH-Tween broth. The fragrance material was dispersed by ultrasonication into the aqueous medium to obtain a homogenous emulsion. 100 μl per well of this emulsion was then added to the first row of the microtiter plates already containing the target organisms. Serial dilution series were then prepared starting at row A and continuing until row G, each time removing 100 μl from a well and transferring it to the next well. In this way fragrance concentrations of 0.5%, 0.25%, 0.125%, 0.0625%, 0.03125%, 0.0156%, and 0.0078% were tested for their antibacterial efficacy. The reference compound Triclosan was tested at 16-fold lower concentrations. The plates were covered with plastic films and incubated for 24 h at 36° C. with shaking at 250 rpm. The turbidity developing in the microtiter plates was then examined after 24 h to determine microbial growth. The minimal concentration of fragrance inhibiting the growth of an organism by at least 80% was determined as the minimal inhibitory concentration (MIC).
Ax 25 was identified as Staphylococcus epidermidis by FAME analysis. Identification with the Api Coryne test kit yielded the following species assignments for the remainder of the strains: Ax 26 Corynebacterium sp.; Ax 3 Corynebacterium bovis; Ax 7 Corynebacterium group G; Ax 10 Corynebacterium jeikeium; Ax 11 Corynebacterium jeikeium; Ax 12 Corynebacteriurn jeikeium; Ax 15 Corynebacterium jeikeium; Ax 20 Corynebacterium striatum/amycolatum; and Ax 19 Corynebacterium jeikeium. The strains were isolated from the axilla of 8 human volunteers. […]

[2] = system: Ax 15 Corynebacterium jeikeium; test: MIC microtiter plate test, axilla strain Ax 15; assay type: cell-based; conditions: for Bacteriostatic activity Corynebact. Ax 15: at least 80% reduction in growth during 24 hours, Table 7; for Minimal inhibitory concentration (MIC) Ax 15: at least 80% growth inhibition, 24 h, 36° C., Table 1
From the text: as §1
(§2) Ax 25 was identified as Staphylococcus epidermidis by FAME analysis. Identification with the Api Coryne test kit yielded the following species assignments for the remainder of the strains: Ax 26 Corynebacterium sp.; Ax 3 Corynebacterium bovis; Ax 7 Corynebacterium group G; Ax 10 Corynebacterium jeikeium; Ax 11 Corynebacterium jeikeium; Ax 12 Corynebacteriurn jeikeium; Ax 15 Corynebacterium jeikeium; Ax 20 Corynebacterium striatum/amycolatum; and Ax 19 Corynebacterium jeikeium. The strains were isolated from the axilla of 8 human volunteers. Based on biochemical tests and colony morphology all strains were distinct from each other, even the several strains all belonging to Corynebacterium jeikelurn.

[3] = system: Corynebacteria; test: MIC against Corynebacteria (average / overall); assay type: cell-based, Corynebacterium; conditions: malodor forming axilla bacteria
From the text: (§3) The different bacterial strains had been isolated from the human axilla by current microbiological practice. They were taxonomically identified by cell morphology, gram-reaction, and biochemical tests included in the Api coryne test kit (BioMerieux, France). Strain Staphylococcus epidermidis Ax25 was identified by fatty acid methyl ester analysis (FAME; German type strain collection DSMZ, Germany). The strains were maintained on Tryptic soy broth plates, this standard medium being amended with 5 g per Liter of Tween 80 and 1 g of Soybean lecithin. Plates were incubated at 36° C. for a period 48 hours. The bacteria were then swabbed from the plates and suspended in 4 ml of Muller-Hinton broth amended with 100 mg of Tween 80 per Liter (MH-Tween) and incubated again at 360 C for 16 hours. Following incubation the bacterial suspensions were diluted in MH-Tween to obtain a final cell density of 10^6 colony forming units per ml. For each fragrance material four microtiter plates were used in the example, each microtiter plate having 8 rows, A-H, and 12 columns, 1-12. […]
Since sandela is known to be a mixture of different reaction products, commercial sandela was subjected to a distillation process. […] The different fractions were evaluated for their antimicrobial activity (Table 6) with the method described in example 1. […]

[4] = system: Ax 7 Corynebacterium group G; test: MIC microtiter plate test, axilla strain Ax 7; assay type: cell-based; conditions: for Minimal inhibitory concentration (MIC) Ax 7: at least 80% growth inhibition, 24 h, 36° C., Table 1
From the text: as §1, §2

[5] = system: Ax 12 Corynebacteriurn jeikeium; test: MIC microtiter plate test, axilla strain Ax 12; assay type: cell-based, Corynebacterium jeikeium; conditions: at least 80% growth inhibition, 24 h, 36° C.; Table 1
From the text: as §1, with “The minimal concentration of fragrance inhibiting the growth of an organism by at least 80% was determined as the minimal inhibitory concentration (MIC).” left out

[6] = system: Ax 11 Corynebacterium jeikeium; test: MIC microtiter plate test, axilla strain Ax 11; assay type: cell-based; conditions: at least 80% growth inhibition, 24 h, 36° C.; Table 1
From the text: as §1, with “The minimal concentration of fragrance inhibiting the growth of an organism by at least 80% was determined as the minimal inhibitory concentration (MIC).” left out

[7] = system: Ax 3 Corynebacterium bovis; test: MIC microtiter plate test, axilla strain Ax 3; assay type: cell-based; conditions: at least 80% growth inhibition, 24 h, 36° C.; Table 1
From the text: as §1, with “The minimal concentration of fragrance inhibiting the growth of an organism by at least 80% was determined as the minimal inhibitory concentration (MIC).” left out

[8] = system: Ax 20 Corynebacterium striatum/amycolatum; test: MIC microtiter plate test, axilla strain Ax 20; assay type: cell-based; conditions: at least 80% growth inhibition, 24 h, 36° C.; Table 1
From the text: as §1, with “The minimal concentration of fragrance inhibiting the growth of an organism by at least 80% was determined as the minimal inhibitory concentration (MIC).” left out

[9] = system: Brevibacterium epidermidis DSMZ 9586; test: MIC against Brevibacterium epidermidis; assay type: cell-based; conditions: DSMZ 9586, method of Example 1
From the text: as §1
A selection of perfume compounds were tested against Brevibacterium epidermidis DSMZ 9586 (German Collection of Microorganisms and Cell Cultures) with the method described in Example 1.

[10] = system: Ax 19 Corynebacterium jeikeium; test: MIC microtiter plate test, axilla strain Ax 19; assay type: cell-based; conditions: at least 80% growth inhibition, 24 h, 36° C.; Table 1
From the text: as §3, with “1-12. To each column a diluted suspension of a different test organism was distributed, 100 μl per well. 1% stock solutions of the fragrance materials were then prepared in MH-Tween broth. The fragrance material was dispersed by ultrasonication into the aqueous medium to obtain a homogenous emulsion.” for “1-12.”

[11] = system: Propionibacterium acnes DSMZ1897; test: MIC against Propionibacterium acnes, anaerobic, 72 hours; assay type: cell-based; conditions: DSMZ1897, anaerobic conditions
[12] = system: Ax 10 Corynebacterium jeikeium; test: MIC microtiter plate test, axilla strain Ax 10; assay type: cell-based; conditions: at least 80% growth inhibition, 24 h, 36° C.; Table 1
From the text: as §3, with “1-12. To each column a diluted suspension of a different test organism was distributed, 100 μl per well. 1% stock solutions of the fragrance materials were then prepared in MH-Tween broth. The fragrance material was dispersed by ultrasonication into the aqueous medium to obtain a homogenous emulsion.” for “1-12.”

Structure (SMILES) | Bacteriostatic activity Corynebact. Ax 15 [2] | Minimal inhibitory concentration (MIC) Ax 7 [4] | Minimal inhibitory concentration (MIC) Ax 12 [5] | Minimal inhibitory concentration (MIC) Ax 11 [6] | Minimal inhibitory concentration (MIC) Ax 3 [7] | Minimal inhibitory concentration (MIC) Ax 20 [8] | Minimal inhibitory concentration (MIC) Ax 15 [2] | MIC for Brevibacterium epidermidis [9] | MIC for Propionibacterium acnes [11] | also measured
COC1CC(C2CC3CC2C(C)C3(C)C)CCC1O (single isomer, unassigned) [Peak A] | 0.0048 percent (w/v) | – | – | – | – | – | – | – | – | Bacteriostatic activity Corynebact. Ax 26 [1]: 0.0028 percent (w/v)
COC1CC(C2CC3CC2C(C)C3(C)C)CCC1O (single isomer, unassigned) [Peak B] | 0.0028 percent (w/v) | – | – | – | – | – | – | – | – | Bacteriostatic activity Corynebact. Ax 26 [1]: 0.0016 percent (w/v)
COC1CC(C2CC3CC2C(C)C3(C)C)CCC1O (stereo not drawn) [2-methoxy-4-(5,5,6-trimethylbicyclo[2.2.1]hept-2-yl)cyclohexan-1-ol] | – | – | – | – | – | – | – | – | – | activity against Corynebacteria (in words) [3]: highest activity
COC1CCC(C2CC3CC2C(C)C3(C)C)CC1O (stereo not drawn) [2-methoxy-5-(5,5,6-trimethyl-bicyclo[2.2.1]hept-2-yl)cyclohexan-1-ol] | – | – | – | – | – | – | – | – | – | activity against Corynebacteria (in words) [3]: highest activity
CC1=CCC(/C=C\C(C)C(C)O)C1(C)C (stereo not drawn) [Ebanol] | – | 0.1250 % weight/ volume | 0.2500 % weight/ volume | 0.2500 % weight/ volume | 0.1250 % weight/ volume | 0.1250 % weight/ volume | 0.2500 % weight/ volume | – | – | Minimal inhibitory concentration (MIC) Ax 26 [1]: 0.1250 % weight/ volume
CC(C)=CCCC(C)=CCCC(C)=CCO [Farnesol, 3,7,11-trimethyl-2,6,10-dodecatrien-1-ol] | 0.0156 percent (w/v) | – | 0.0137 % weight/ volume | – | 0.0156 % weight/ volume | 0.0137 % weight/ volume | 0.0156 % weight/ volume | 0.0078 % w/v | 0.0078 % w/v | Minimal inhibitory concentration (MIC) Ax 19 [10]: 0.0156 % weight/ volume; Minimal inhibitory concentration (MIC) Ax 10 [12]: 0.0078 % weight/ volume
CCC(=CCC1CC=C(C)C1(C)C)CO (stereo not drawn) [Radjanol] | – | 0.0625 % weight/ volume | – | – | – | – | – | 0.03125 % w/v | – | –
CC1=CCC(CCC(C)C(C)O)C1(C)C (stereo not drawn) [Sandalore] | – | 0.1250 % weight/ volume | 0.1250 % weight/ volume | 0.1250 % weight/ volume | 0.1250 % weight/ volume | 0.1250 % weight/ volume | – | 0.0937 % w/v | 0.25 % w/v | Minimal inhibitory concentration (MIC) Ax 26 [1]: 0.1250 % weight/ volume; Minimal inhibitory concentration (MIC) Ax 10 [12]: 0.1250 % weight/ volume
Oc1cc(Cl)ccc1Oc1ccc(Cl)cc1Cl [Triclosan, 2,4,4′-trichloro-2′-hydroxy-diphenyl-ether] | – | 0.0029 % weight/ volume | – | 0.0029 % weight/ volume | – | – | 0.0029 % weight/ volume | 0.003125 % w/v | 0.00039 % w/v | Bacteriostatic activity Corynebact. Ax 7 ([4]; at least 80% reduction in growth during 24 hours, Table 7): 0.0025 percent (w/v)
